Experimental data: patent US5631293A, “Preparation of amino acid-substituted benzoylguanidines as diagnostic agents” (priority 1994, dated 1997)
Where a name gives a salt, the structure may show the parent alone. Blank lines part the entries; values can stand above or below the compound they belong to.

Columns and labels:
[1] = molecular target: T1, Na+/H^+ exchanger of rabbit erythrocytes (Oryctolagus cuniculus, UniProt P23791); test: Inhibition of the Na+/H+ exchanger of rabbit erythrocytes (amiloride-sensitive Na+ influx, flame photometry); assay type: cell-based, rabbit (White New Zealand); details: cholesterol diet 2% six weeks, pH 7.4, 37° C
T1 construct: determine the Na^+ influx into the erythrocytes via Na^+ /H^+ exchange by flame photometry; endogenous in cells; host or cells: erythrocytes in blood from the ear arteries of cholesterol-fed White New Zealand rabbits (Ivanovas)
Excerpt: Inhibition of the Na+/H^+ exchanger of rabbit erythrocytes
White New Zealand rabbits (Ivanovas) were given a standard diet with 2% of cholesterol for six weeks in order to activate the Na^+ /H^+ exchange and in this way to be able to determine the Na^+ influx into the erythrocytes via Na^+ /H^+ exchange by flame photometry. The blood was removed from the ear arteries and rendered noncoagulable by 25 IU of potassium-heparin. A portion of each sample was used for duplicate determination of the hematocrit by centrifugation. Aliquots of in each case 100 μl were used for measurement of the starting Na^+ content of the erythrocytes.
To determine the amiloride-sensitive sodium influx, 100 μl of each blood sample were incubated in 5 ml portions each of a hyperosmolar salt/sucrose medium (mmol/l: 140 NaCl, 3 KCl, 150 sucrose, 0.1 ouabain, 20 tris-hydroxymethylaminomethane) at pH 7.4 and 37° C. The erythrocytes were then washed three times with ice-cold MgCl2 /ouabain solution (mmol/l: 112 MgCl2, 0.1 ouabain) and hemolyzed in 2.0 ml of distilled water. The intracellular sodium content was determined by flame photometry.
The Na^+ net influx was calculated from the difference between the starting sodium values and the sodium content of the erythrocytes after incubation. The sodium influx which can be inhibited by amiloride resulted from the difference between the sodium content of the erythrocytes after incubation with and without 3×10^-4 mol/l of amiloride. This procedure was also followed with compounds according to the invention.

[2] = test system: disturbances in cardiac rhythm; details: Circulation 79, 1257-63 (1989); cited from earlier work
[3] = test system: artificially induced ventricular fibrillation on rat hearts; details: isolated rat hearts, cited from earlier work

T1 sequence (P23791 whole entry): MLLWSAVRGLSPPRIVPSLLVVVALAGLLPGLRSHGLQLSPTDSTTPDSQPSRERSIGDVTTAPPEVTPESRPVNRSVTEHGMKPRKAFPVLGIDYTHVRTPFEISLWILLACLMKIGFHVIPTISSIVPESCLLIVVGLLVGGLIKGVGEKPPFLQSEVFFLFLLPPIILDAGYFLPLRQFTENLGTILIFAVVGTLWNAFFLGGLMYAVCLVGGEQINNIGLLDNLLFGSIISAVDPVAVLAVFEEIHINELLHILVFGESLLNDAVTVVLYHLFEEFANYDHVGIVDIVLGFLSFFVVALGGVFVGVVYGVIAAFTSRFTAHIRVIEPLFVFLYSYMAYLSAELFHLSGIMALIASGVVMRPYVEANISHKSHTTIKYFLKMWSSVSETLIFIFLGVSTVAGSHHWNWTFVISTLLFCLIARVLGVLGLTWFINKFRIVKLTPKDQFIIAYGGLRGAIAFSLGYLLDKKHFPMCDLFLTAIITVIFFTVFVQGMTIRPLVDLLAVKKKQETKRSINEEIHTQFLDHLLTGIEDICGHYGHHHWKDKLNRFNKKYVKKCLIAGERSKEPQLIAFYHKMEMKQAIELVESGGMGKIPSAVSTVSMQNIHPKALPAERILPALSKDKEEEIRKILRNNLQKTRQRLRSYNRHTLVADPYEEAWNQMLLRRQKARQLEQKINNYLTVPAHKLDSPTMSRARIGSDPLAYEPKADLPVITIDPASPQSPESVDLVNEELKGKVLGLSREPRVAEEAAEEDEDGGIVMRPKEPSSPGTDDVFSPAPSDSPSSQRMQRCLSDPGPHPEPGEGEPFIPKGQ

IC50 [1]: 1000 nM
Compound: CS(=O)(=O)c1cc(C(=O)N=C(N)N)ccc1Oc1ccc(C[C@H](N)C(=O)O)cc1 [Example 2, 4-[(4-Guanidinocarbonyl-2-methylsulfonyl)phenoxy]phenylalanine]

Compound: NC(N)=NC(=O)c1nc(Cl)c(N)nc1N [amiloride]
antiarrhythmic effect [2]: only weak | side-effects accompanying the antiarrhythmic effect [2]: antihypertensive and saluretic action | suppression of artificially induced ventricular fibrillation [3]: suppressed completely

Compound: CCN(c1nc(N)c(C(=O)N=C(N)N)nc1Cl)C(C)C [ethylisopropylamiloride]
potency against ventricular fibrillation compared with amiloride ([3]; relative to amiloride): even more potent than amiloride

Compound: CC(C)(C)OC(=O)N[C@@H](Cc1ccc(Oc2ccc(C(=O)N=C(N)N)cc2S(C)(=O)=O)cc1)C(=O)O [Example 1, N-tert-Butoxycarbonyl-4-[(4-guanidinocarbonyl-2-methylsulfonyl)phenoxy]-phenylalanine]
IC50 [1]: 430 nM

IC50 [1]: 26 nM
Compound: NC(N)=NC(=O)c1ccc(Oc2ccc(CC(N)C(=O)O)cc2)c(C(F)(F)F)c1 (stereo not shown) [Example 4, 4-[(4-Guanidinocarbonyl-2-trifluoromethyl)phenoxy]phenylalanine, dihydrochloride]
